Test results published in the NIST ThermoML archive (doi:10.1016/j.tca.2015.08.011).
Numbers after ± are expanded uncertainties.

Legend:
[1] = 101.33 kPa, Crystal, Laser pulse heating
[2] = molar heat capacity at constant pressure; conditions: 101.33 kPa, Crystal, Small sample (50 mg) DSC

SMILES: [Ce+4].[O-2].[O-2] [ceric oxide]
- thermal conductivity ([1]; 298.15 K): 15.15 ± 0.91 W/m/K
- thermal conductivity ([1]; 773.15 K): 6.05 ± 0.36 W/m/K
- thermal conductivity ([1]; 1273.2 K): 2.7 ± 0.16 W/m/K
- molar heat capacity at constant pressure ([2]; 323.15 K): 57.9 ± 1.2 J/K/mol
- molar heat capacity at constant pressure ([2]; 373.15 K): 62.1 ± 1.2 J/K/mol
- molar heat capacity at constant pressure ([2]; 423.15 K): 65.42 ± 1.3 J/K/mol
- molar heat capacity at constant pressure ([2]; 473.15 K): 67.99 ± 1.4 J/K/mol
- molar heat capacity at constant pressure ([2]; 523.15 K): 69.93 ± 1.4 J/K/mol
- molar heat capacity at constant pressure ([2]; 573.15 K): 71.34 ± 1.4 J/K/mol
- molar heat capacity at constant pressure ([2]; 623.15 K): 72.32 ± 1.4 J/K/mol
- molar heat capacity at constant pressure ([2]; 673.15 K): 72.96 ± 1.5 J/K/mol
- molar heat capacity at constant pressure ([2]; 723.15 K): 73.34 ± 1.5 J/K/mol
- molar heat capacity at constant pressure ([2]; 773.15 K): 73.53 ± 1.5 J/K/mol
- molar heat capacity at constant pressure ([2]; 823.15 K): 73.6 ± 1.5 J/K/mol
- molar heat capacity at constant pressure ([2]; 873.15 K): 73.58 ± 1.5 J/K/mol
- molar heat capacity at constant pressure ([2]; 923.15 K): 73.53 ± 1.5 J/K/mol
- molar heat capacity at constant pressure ([2]; 973.15 K): 73.48 ± 1.5 J/K/mol
- molar heat capacity at constant pressure ([2]; 1023.1 K): 73.44 ± 1.5 J/K/mol
- molar heat capacity at constant pressure ([2]; 1073.2 K): 73.46 ± 1.5 J/K/mol
- molar heat capacity at constant pressure ([2]; 1123.2 K): 73.51 ± 1.5 J/K/mol
- molar heat capacity at constant pressure ([2]; 1173.2 K): 73.61 ± 1.5 J/K/mol
